The results in this text go back to US4358607A, “Chloro-substituted benzospiro cyclopropane carboxylic acid” (American Cyanamid Co., priority 1978, dated 1982).

Values joined by “and” are separate entries in the source; they are usually repeats but may differ in a detail not shown here. Identical values can stand only once.

Usually mortality stands for the percentage killed.

Holding throughout (assay type): in vivo
In assay [1] the test system is Southern Armyworm [Spodoptera eridania]. The assay can be described thus: Southern Armyworm test. The note with it: 2 days. As to the method: Southern Armyworm [Spodoptera eridania (Cramer)].
A sieva lima bean plant with just the primary leaves expanded to 7.6 to 10 cm is dipped for 3 seconds with agitation in a 1000 ppm solution and set in a hood to dry. Following this, one leaf is placed in a 10 cm petri dish which has a moist filter paper in the bottom and 10 third-instar armyworm larvae about 1 cm long. The dish is covered and held at 26.7° C. After 2 days mortality counts and estimates of the amount of feeding are made. Compounds showing partial kill and/or inhibition of feeding are held for an extra day for further observations.
(§1) The rating system employed in these tests is as follows:
(§2) Compounds rated active (8 or 9) are further tested at reduced concentrations in 50% acetone: 50% water.

The test system of assay [2] is Two-Spotted Spider Mite [Tetranychus urticae]. The assay can be described thus: Phosphate-Resistant Strain of Two-Spotted Spider Mite test. On the procedure:
Phosphate-Resistant Strain of Two-Spotted Spider Mite [Tetranychus urticae (Koch)].
Sieva lima bean plants, with primary leaves 7.6 to 10 cm long, are infested with about 100 adult mites per leaf 4 hours before use in this test, in order to allow egg-laying before treatment. The infested plants are dipped for 3 seconds with agitation into a 300 ppm solution, and the plants set in the hood to dry. After 2 days at 26.7° C., the adult mite mortality is estimated on one leaf under a 10X stereoscopic microscope. The other leaf is left on the plant an additional 5 days and then examined at 10X power to estimate the kill of eggs and of newly-hatched nymphs, giving a measure of ovicidal and residual action, respectively.
as §1, §2

The subject of assay [3] is Mexican Bean Beetle (Epilachna varivestis). The experiment in a line: Mexican Bean Beetle test. The note with it: 300 ppm.
Description: Mexican Bean Beetle (Epilachna varivestis Mulsant)
Sieva lima bean plants (2 per pot) with primary leaves 7.6 to 10 cm long, are dipped in a 300 ppm solution and set in a hood to dry. One leaf is removed from the plant and placed in a 10 cm petri dish containing a moist filter paper on the bottom and 10 last-instar larvae (13 days from hatching).
The day after treatment, another leaf is removed from the plant and fed to the larvae after removing the remains of the original leaf. Two days after treatment, the third leaf is fed to the larvae, this usually being the last needed. The fourth leaf is used on the third day after treatment if the larvae have not finished feeding. The test is now set aside and held until adults have emerged, usually about 9 days after treatment began. After emergence is complete, each dish is examined for dead larvae, pupae or adults; deformed pupae or adults; larval-pupal intermediates or pupal-adult intermediates; or any other interference with normal molting, transformation and emergence of pupae or adults.
as §1, §2

The next assay deals with Boophilus microplus. The experiment in a line: Control of Ixodidae: engorged adult female ticks, reduction in viable egg masses. On the procedure:
The compound to be tested is dissolved in a 35% acetone/65% water mixture in amounts sufficient to provide the concentrations indicated in Table I below. Ten ticks per treatment are used and they are immersed in the test solution for three to five minutes, then removed and held in incubators for two to three weeks at 28° C. Counts of ticks laying eggs are then made and recorded. Eggs which were laid are placed in containers and kept for one month to observe hatching and to determine chemosterilant effect.
Percent reduction in viable egg masses is believed to be indicative of one or more of the following mechanisms:
2. Suppression of fecundity.
3. Chemosterilant effect.

For assay [4], the system named is Boophilus microplus larvae. The assay can be described thus: Control of Boophilus microplus larvae. The note with it: Rhipicephalus microplus, 48 h, read-out: Percent Mortality of Boophilus microplus. As to the method: Twenty larvae are enclosed in a pipet sealed at one end with a gauze material, and a solution, containing the test compound at the concentrations given, is then drawn through the pipet with a vacuum hose simulating a spray system. The ticks are then held for 48 hours at room temperature, and percent mortality rates are then determined.

Assay [5] concerns Tobacco Budworm [Heliothis virescens] larvae. The assay can be described thus: Tobacco Budworm newly hatched larvae test. The note with it: 3 days. On the procedure:
(§3) Tobacco Budworm [Heliothis virescens (Fabricus)].
(§4) A cotton plant with 2 true leaves expanded is dipped for 3 seconds with agitation in a 300 ppm solution. A 1.25 to 2 cm square of cheesecloth with about 50 to 100 budworm eggs 0-24 hours old is also dipped in the test solution and placed on one leaf to dry. The leaf with the treated budworm eggs is removed from the plant and placed in a 236.6 ml (8-Oz) Dixie cup with a wet 5 cm piece of dental wick and covered with a lid. The other leaf is placed in a similar cup with a wick and a piece of cheesecloth infested with 50-100 newly hatched larvae is added before covering the cup with a lid. After 3 days at 26.7° C., observations of egg hatch are made as well as kill of newly hatched larvae, any inhibition of feeding, or interference of any sort with normal development.
as §1, §2

The test system of assay [6] is Malaria Mosquito (Anopheles quadrimaculatus). The assay can be described thus: Malaria Mosquito egg and larvae test. As to the method: Malaria Mosquito (Anopheles quadrimaculatus say) egg and larvae test. One ml of a 300 ppm solution is pipetted into a 400 ml beaker containing 250 ml of deionized water and stirred with the pipette, giving a concentration of 1.2 ppm. A wax paper ring 0.6 cm wide to fit inside the beaker is floated on the surface of the test solution to keep the eggs from floating up the meniscus curve and drying out on the side of the glass. A spoon made of screen is used to scoop up and transfer about 100 eggs (0-24 hours old) into the test beaker. After two days at 26.7°C. observations of hatching are made. This includes kill of eggs or inhibition of hatch, kill of newly hatched larvae, or delayed hatch. Additional observations are made after another day for the same effects. The rating system employed in these tests is as follows: Compounds rated active (8 or 9) are further tested at reduced concentrations in 50% acetone: 50% water.

In assay [7] the test system is Tobacco Budworm [Heliothis virescens] eggs. The experiment in a line: Tobacco Budworm egg test. To be noted: 300 ppm, 3 days. On the procedure:
as §3, §4, §1, §2

In a further assay the test system is Bean Aphid (Aphid fabae). The assay can be described thus: Bean Aphid test. The note with it: 1 day. As to the method:
Bean Aphid (Aphid fabae Scopoli).
Five cm fiber pots, each containing a nasturtium plant 5 cm high and infested with 100 to 500 aphids 2 days earlier are placed on a 4 rpm turntable and sprayed with a 100 ppm solution of 2 revolutions with a No. 154 DeVilbiss Atomizer at 1.4 kg/cm^2 air pressure. The spray tip is held about 15 cm from the plants and the spray directed so as to give complete coverage of the aphids and the plants. The sprayed plants are laid on their sides on white enamel trays. Mortality estimates are made after 1 day at 26.7° C.
as §1, §2

The subject of assay [8] is Malaria Mosquito (Anopheles quadrimaculatus) adult. The experiment in a line: Malaria Mosquito Adult Test. To be noted: 1 day. As to the method: Malaria Mosquito (Anopheles quadrimaculatus Say) Adult Test
Ten ppm solutions are poured into wide-mouth 46.2 ml jars each containing a microscope slide. The slides are removed from the test solution with forceps and laid horizontally to dry on a wide-mouth 118.4 ml bottle. When dry, they are placed in the same 118.4 ml bottle and ten 4 to 5-day old mosquitoes of mixed sexes are added to each bottle. A piece of cotton gauze held on by an elastic band serves as a lid and a wad of cotton soaked in 10% honey solution serves as food. Mortality counts are made after 1 day at 26.7° C.
as §1, §2

Assay [9] relates to Tobacco Budworm [Heliothis virescens] third instar. The experiment in a line: Tobacco Budworm third instar test. To be noted: 3 days. On the procedure:
Tobacco Budworm [Heliothis virescens (Fabricius)]. Third instar. Three cotton plants with just expanded cotyledons are dipped in a 1000 ppm solution, and placed in a hood to dry. When dry, each cotyledon is cut in half and 10 are each placed in a 29.6 ml plastic medicine cup containing a 1.25 cm dental wick saturated with water, and one third-instar budworm larva is added. The cup is capped and held for 3 days at 26.7° C., after which mortality counts are made. The rating system employed in these tests is as follows: Compounds rated active (8 or 9) are further tested at reduced concentrations in 50% acetone: 50% water.

Assay [10] relates to Cabbage Looper [Trichoplusia ni]. The experiment in a line: Cabbage Looper test. The note with it: 2 days. On the procedure:
Cabbage Looper. [Trichoplusia ni (Hubner)].
A primary leaf of a cotton plant is dipped in the test solution and agitated for 3 seconds. It is then set in a hood to dry. Following this, the leaf is placed in a 10 cm petri dish containing a moist filter paper at the bottom and 10 third-instar loopers. The dish is covered and held at 26.7° C. After 2 days, mortality counts and estimates of feeding damage are recorded. Those materials showing partial kill and/or inhibition of feeding are held for another day for further observations.
as §1, §2

The test system of assay [11] is Western Potato Leaf Hopper (Empoasca abrupta). The assay can be described thus: Western Potato Leaf Hopper test. To be noted: 2 days.
Description: Western Potato Leaf Hopper (Empoasca abrupta DeLong)
A lima bean plant with the primary leaf expanded to 7.6 to 10 cm is dipped into a 100 ppm solution and set in a hood to dry. A 2.5 cm piece of the tip of 1 leaf is cut off and placed in a 10 cm petri dish with a moist filter paper in the bottom. (In practice, this is usually cut off the tip of a plant from the Mexican bean beetle tests using a bean leaf dipped in the needed solution). From 3 to 10 second-instar nymphs are tapped from the culture plants into the test dish and rapidly covered. Mortality counts are made after two days at 26.7° C.
as §1, §2

As for `CC1(C)C(C(=O)OCc2cccc(Oc3ccccc3)c2)C12C=C(Cl)c1ccccc12` (stereo not shown) [drawing 12], the “Insecticidal activity rating, Southern Armyworms” value in [1] (10 ppm) is listed as 0 (0-4% killed or affected); in [1] (100 ppm), 9 (100% mortality); in assay [1] (1000 ppm), 9 (100% mortality). In addition, the “Activity rating, Phosphate Resistant Mites” value in assay [2] (100 ppm) was 0 (0-4% killed or affected); in [2] (300 ppm) it was 8 (86-95% mortality). In addition, the “Insecticidal activity rating, Mexican Bean Beetles” value in [3] is 9 (100% mortality).

On to `CC1(C)C(C(=O)OCc2cccc(Oc3ccccc3)c2)C12C=C(Cl)c1ccccc12` (stereo not shown) [drawing 6], for which the “Percent reduction in viable egg masses” value in the assay on Boophilus microplus (15 ppm) stood at 0%; in the assay with Boophilus microplus (31 ppm), 72.7%; with Boophilus microplus (62 ppm), 83.9%; in the assay on Boophilus microplus (125 ppm), 91.9%.

As for `CC1(C)C(C(=O)OCc2cccc(Oc3ccccc3)c2)C12C=C(Cl)c1ccccc12` (stereo not shown) [drawing 8], the mortality at 100 ppm in [4] (100 ppm) stood at 100%.

Take `CC1(C)C(C(=O)OC(C#N)c2cccc(Oc3ccccc3)c2)C12C=C(Cl)c1ccccc12` (stereo not shown) [drawing 5]: in the assay on Boophilus microplus (125 ppm), the “Percent reduction in viable egg masses” value stood at 98%.

On to `CC1(C)C(C(=O)OCc2cccc(Oc3ccccc3)c2)C12C=C(Cl)c1ccccc12` (stereo not shown) [drawing 10], for which the “Insecticidal activity rating, Tobacco Budworm Larvae” value in assay [5] (10 ppm), in [5] (100 ppm) and in [5] (300 ppm) was 9 (100% mortality) in each case. The “Insecticidal activity rating, Mosquito Larvae” value in assay [6] (0.04 ppm), in [6] (0.4 ppm) and in assay [6] (1.2 ppm) was 9 (100% mortality) each time. Further, the “Insecticidal activity rating, Tobacco Budworm Eggs” value in assay [7] is 0 (0-4% killed or affected).

With `CC1(C)C(C(=O)OCc2cccc(Oc3ccccc3)c2)C12C=C(Cl)c1ccccc12` (stereo not shown) [drawing 14], the “Insecticidal activity rating, Bean Aphids” value was 0 (0-4% killed or affected) in the assay with Bean Aphid (Aphid fabae) (1 ppm), 9 (100% mortality) in the assay with Bean Aphid (Aphid fabae) (10 ppm) and 9 (100% mortality) with Bean Aphid (Aphid fabae) (100 ppm). The “Insecticidal activity rating, Mosquito, Adult” value in assay [8] (10 ppm) is reported as 0 (0-4% killed or affected). In addition, the figures for the “Insecticidal activity rating, Tobacco Budworm 3rd Instar” value in [9] (100 ppm) and in assay [9] (1000 ppm) were 5 (51-60% mortality) and 9 (100% mortality), respectively. For the same molecule, the “Insecticidal activity rating, Cabbage Looper” value in [10] (100 ppm) and in assay [10] (1000 ppm) was 9 (100% mortality) in each case. In addition, the “Insecticidal activity rating, Leaf Hopper” value in assay [11] (10 ppm) and in assay [11] (100 ppm) was 9 (100% mortality) in each case.

Consider `CC1(C)C(C(=O)OC(C#N)c2cccc(Oc3ccccc3)c2)C12C=C(Cl)c1ccccc12` (stereo not shown) [drawing 13], for which the “Insecticidal activity rating, Bean Aphids” value in the assay on Bean Aphid (Aphid fabae) (1 ppm), in the assay on Bean Aphid (Aphid fabae) (10 ppm) and with Bean Aphid (Aphid fabae) (100 ppm) was 9 (100% mortality) throughout. In addition, the “Insecticidal activity rating, Mosquito, Adult” value is 7 (71-85% mortality) and 6 (61-70% mortality) and 9 (100% mortality) in [8] (1 ppm); 9 (100% mortality) in assay [8] (10 ppm). In addition, the “Insecticidal activity rating, Tobacco Budworm 3rd Instar” value in assay [9] (100 ppm) is listed as 0 (0-4% killed or affected); in [9] (1000 ppm) it was 5 (51-60% mortality). Besides, the “Insecticidal activity rating, Cabbage Looper” value in [10] (100 ppm) and in assay [10] (1000 ppm) was 9 (100% mortality) each time. For the same molecule, the “Insecticidal activity rating, Leaf Hopper” value in [11] (10 ppm) and in assay [11] (100 ppm) was 9 (100% mortality) in each case.

Turning to `CC1(C)C(C(=O)OC(C#N)c2cccc(Oc3ccccc3)c2)C12C=C(Cl)c1ccccc12` (stereo not shown) [drawing 7], the mortality at 0.012 ppm in assay [4] (0.012 ppm) is 0%. Moreover, the mortality at 0.05 ppm in assay [4] (0.05 ppm) amounted to 0%. Further, the mortality at 0.78 ppm in [4] (0.78 ppm) fell in the range of 80 to 100%.
